Assay results as given in PMC4738305, “Metabolism and Disposition of Aditoprim in Swine, Broilers, Carp and Rats” (Scientific Reports, 2016).

Experiments:
[1] = Tissue distribution and elimination of total radioactivity (total residues) after oral ^3H-ADP for 7 d; assay type: in vivo, broilers; design: Elimination kinetics Ke: unit not given here; details: for Elimination kinetics Ke / Elimination kinetics t1/2 / Concentrations of total residues: broilers; for Elimination kinetics Ke / Elimination kinetics t1/2: 5 mg/kg b.w. 7 days
Protocol: (§1) (0.1 Ci/g) through oral gavage for 7 consecutive days. All the animals were housed on the basis of their group in the cages or aquaria throughout the whole study period. A group of animals was slaughtered through exsanguination under diethyl ether inhalation of anesthesia in the period of 6 h, 1, 3, 7, 14, and 21 d after the administration. The blood samples were immediately collected into the heparinized tubes and was centrifuged at 1920 × g at 4 °C for 10 min to obtain the plasma. The tissues from the heart, liver, spleen, lung, kidney, craw (broilers), stomach, intestine, fat, skin, muscle, thymus, pancreas, bile, bladder, hair (scale for carp), genital gland, adrenal glands, swim bladder (carp), brain, lymph, and bursa (broilers) were carefully excised and collected. The tissues were thoroughly rinsed with the deionized water to remove the residuary blood, blotted to dryness, and finally to perform the homogenization. In order to avoid cross-contamination the dissecting instruments were washed during the tissue procurements. The blank tissues were collected in order to provide control matrices. The total radioactivity levels in each sample were determined through LSC. The samples extracted from the plasma, bile, and tissues of the liver, kidney, muscle, and fat/skin were analyzed through LC/MS-IT-TOF and v. ARC radiometric detection for metabolite profiling.
(§2) Measurements of the total radioactivity in each sample were conducted by Packard Tri-Carb 2900 TR liquid scintillation counter (PerkinElmer Life and Analytical Sciences). The detection time was 10 min for two cycles. The scintillation counter data were automatically corrected for counting efficiency by instrument-stored quench curve which was drawn with a series of sealed quenched […] standards. The actual radioactivity of each sample was calculated by subtracting the background value form the mean radioactivity in two blank samples. All the samples were analyzed in duplicate if the sample size allowed this. If the results were differed by more than 10% from the mean value, the samples were reanalyzed. The samples with LSC counts less than 2-fold of the level of the running background were considered to contain insufficient radioactivity for reliable quantification.
(§3) Aliquots of liquid samples (urine, plasma, bile and raised water, 200 μL) were mixed with 10 mL of Ultima Gold^TM scintillation fluid for the direct analysis by LSC. Aliquots of solid samples (feces and tissues, 200 mg) were digested overnight with 2 mL tissue solubilizer at 50 °C in a shaking water bath, followed by adding 200 μL of 0.1 mol/L EDTA-Na and 200 μL of 30% H2O2, and was bathed at 50 °C for 2 h to bleach. The obtained transparent liquid were mixed with 10 mL of scintillation fluid and finally were counted by LSC. The digestion efficiency was determined by using the blank samples spiked with ^3 H standard for digestion, and the measured radioactivity content in the digested samples were adjusted by using the digestion efficiency values.
(§4) The concentrations of ADP and/or its metabolites were analyzed by using the following equation: C = L/(2.22 × 10^9 × RM), where C is the concentration of ADP or/and its metabolites (mg/kg), L is the LSC count (dpm), R is the specific activity of the administered dose (0.1 Ci/g), and M is the weight or volume of samples (kg or L). The results are expressed as mean ± SD. The elimination kinetics of terminal phase for ADP and its metabolites were conducted by using the WinNonlin linear regression program (Pharsight corporation, Statistical consultants, Inc., Kentucky, USA).

[2] = as above; assay type: in vivo; details: rats, 5 mg/kg b.w. 7 days
Protocol: as §1, §2, §3, §4

Structure (SMILES): [3H]c1c(Cc2cnc(N)nc2N)cc(OC)c(N(C)C)c1OC [^3H-ADP]
- concentration of total radioactivity ([1]; broilers bile, within 6 h after oral ^3H-ADP for 7 d): 25.2 ± 8.5 mg/kg
- Elimination kinetics Ke ([1]; Bile): 0.71
- Elimination kinetics t1/2 ([1]; Bile): 25.9 h
- Elimination kinetics Ke ([1]; Blood): 0.31
- Elimination kinetics t1/2 ([1]; Blood): 54 h
- Elimination kinetics Ke ([1]; Brain): 0.47
- Elimination kinetics t1/2 ([1]; Brain): 35.5 h
- Elimination kinetics Ke ([1]; Bursa of Fabricius): 0.33
- Elimination kinetics t1/2 ([1]; Bursa of Fabricius): 50.6 h
- Elimination kinetics Ke ([1]; Fat): 0.42
- Concentrations of total residues ([1]; Fat, time 0.25, 5 mg/kg b.w. 7 days): 0.78 ± 0.32 mg/kg
- Concentrations of total residues ([1]; Fat, time 1, 5 mg/kg b.w. 7 days): 0.43 ± 0.05 mg/kg
- Concentrations of total residues ([1]; Fat, time 3, 5 mg/kg b.w. 7 days): 0.24 ± 0.02 mg/kg
- Concentrations of total residues ([1]; Fat, time 7, 5 mg/kg b.w. 7 days): 0.04 ± 0.01 mg/kg
- Elimination kinetics Ke ([1]; Feathers): 0.28
- Elimination kinetics t1/2 ([1]; Feathers): 60 h
- Concentrations of total residues ([1]; Feathers, time 0.25, 5 mg/kg b.w. 7 days): 0.85 ± 0.17 mg/kg
- Concentrations of total residues ([1]; Feathers, time 1, 5 mg/kg b.w. 7 days): 0.53 ± 0.12 mg/kg
- Concentrations of total residues ([1]; Feathers, time 3, 5 mg/kg b.w. 7 days): 0.27 ± 0.03 mg/kg
- Concentrations of total residues ([1]; Feathers, time 7, 5 mg/kg b.w. 7 days): 0.10 ± 0.01 mg/kg
- Elimination kinetics Ke ([1]; Glandular stomach): 0.59
- Elimination kinetics t1/2 ([1]; Glandular stomach): 28.1 h
- Concentrations of total residues ([1]; Glandular stomach, time 1, 5 mg/kg b.w. 7 days): 1.54 ± 0.36 mg/kg
- Concentrations of total residues ([1]; Glandular stomach, time 3, 5 mg/kg b.w. 7 days): 0.27 ± 0.05 mg/kg
- Concentrations of total residues ([1]; Glandular stomach, time 7, 5 mg/kg b.w. 7 days): 0.04 ± 0.00 mg/kg
- Elimination kinetics Ke ([1]; Heart): 0.29
- Elimination kinetics t1/2 ([1]; Heart): 57.8 h
- Elimination kinetics Ke ([1]; Kidney): 0.30
- Elimination kinetics Ke ([1]; Large Intestine): 0.90
- Elimination kinetics t1/2 ([1]; Large Intestine): 18.5 h
- Concentrations of total residues ([1]; Large Intestine, time 0.25, 5 mg/kg b.w. 7 days): 6.29 ± 1.45 mg/kg
- Concentrations of total residues ([1]; Large Intestine, time 1, 5 mg/kg b.w. 7 days): 1.25 ± 0.23 mg/kg
- Concentrations of total residues ([1]; Large Intestine, time 3, 5 mg/kg b.w. 7 days): 0.12 ± 0.03 mg/kg
- Concentrations of total residues ([1]; Large Intestine, time 7, 5 mg/kg b.w. 7 days): 0.01 ± 0.00 mg/kg
- Elimination kinetics Ke ([1]; Liver): 0.21
- Elimination kinetics Ke ([1]; Lung): 0.61
- Elimination kinetics t1/2 ([1]; Lung): 27.4 h
- Elimination kinetics Ke ([1]; Maw): 0.53
- Elimination kinetics t1/2 ([1]; Maw): 31.4 h
- Elimination kinetics Ke ([1]; Muscle): 0.23
- Concentrations of total residues ([1]; Muscle, time 0.25, 5 mg/kg b.w. 7 days): 1.10 ± 0.44 mg/kg
- Concentrations of total residues ([1]; Muscle, time 1, 5 mg/kg b.w. 7 days): 0.23 ± 0.10 mg/kg
- Elimination kinetics Ke ([1]; Muscular stomach): 0.46
- Elimination kinetics t1/2 ([1]; Muscular stomach): 36.5 h
- Concentrations of total residues ([1]; Muscular stomach, time 0.25, 5 mg/kg b.w. 7 days): 1.92 ± 0.57 mg/kg
- Concentrations of total residues ([1]; Muscular stomach, time 1, 5 mg/kg b.w. 7 days): 0.69 ± 0.10 mg/kg
- Concentrations of total residues ([1]; Muscular stomach, time 3, 5 mg/kg b.w. 7 days): 0.25 ± 0.03 mg/kg
- Concentrations of total residues ([1]; Muscular stomach, time 7, 5 mg/kg b.w. 7 days): 0.04 ± 0.01 mg/kg
- Elimination kinetics Ke ([1]; Pancreas): 0.57
- Elimination kinetics t1/2 ([1]; Pancreas): 29 h
- Elimination kinetics Ke ([1]; Skin): 0.43
- Elimination kinetics t1/2 ([1]; Skin): 38.6 h
- Concentrations of total residues ([1]; Skin, time 0.25, 5 mg/kg b.w. 7 days): 1.78 ± 0.42 mg/kg
- Concentrations of total residues ([1]; Skin, time 1, 5 mg/kg b.w. 7 days): 0.74 ± 0.11 mg/kg
- Concentrations of total residues ([1]; Skin, time 3, 5 mg/kg b.w. 7 days): 0.25 ± 0.02 mg/kg
- Concentrations of total residues ([1]; Skin, time 7, 5 mg/kg b.w. 7 days): 0.05 ± 0.01 mg/kg
- Elimination kinetics Ke ([1]; Small Intestine): 0.75
- Elimination kinetics t1/2 ([1]; Small Intestine): 22.1 h
- Concentrations of total residues ([1]; Small Intestine, time 0.25, 5 mg/kg b.w. 7 days): 8.23 ± 0.93 mg/kg
- Concentrations of total residues ([1]; Small Intestine, time 1, 5 mg/kg b.w. 7 days): 4.06 ± 1.32 mg/kg
- Concentrations of total residues ([1]; Small Intestine, time 3, 5 mg/kg b.w. 7 days): 0.29 ± 0.04 mg/kg
- Concentrations of total residues ([1]; Small Intestine, time 7, 5 mg/kg b.w. 7 days): 0.04 ± 0.00 mg/kg
- Elimination kinetics Ke ([1]; Spleen): 0.26
- Elimination kinetics t1/2 ([1]; Spleen): 63.1 h
- Elimination kinetics Ke ([2]; Adrenal): 0.28
- Elimination kinetics Ke ([2]; Bladder): 0.56
- Elimination kinetics t1/2 ([2]; Bladder): 29.5 h
- Elimination kinetics Ke ([2]; Blood): 0.22
- Elimination kinetics t1/2 ([2]; Blood): 75.4 h
- Elimination kinetics Ke ([2]; Brain): 0.26
- Elimination kinetics t1/2 ([2]; Brain): 64.6 h
- Elimination kinetics Ke ([2]; Fat): 0.26
- Elimination kinetics Ke ([2]; Gonades): 0.40
- Elimination kinetics t1/2 ([2]; Gonades): 41.5 h
- Elimination kinetics Ke ([2]; Heart): 0.24
- Elimination kinetics t1/2 ([2]; Heart): 70.8 h
- Elimination kinetics Ke ([2]; Kidney): 0.21
- Elimination kinetics Ke ([2]; Large Intestine): 0.40
- Elimination kinetics t1/2 ([2]; Large Intestine): 41.3 h
- Elimination kinetics Ke ([2]; Liver): 0.18
- Elimination kinetics Ke ([2]; Lung): 0.24
- Elimination kinetics t1/2 ([2]; Lung): 69.1 h
- Elimination kinetics Ke ([2]; Muscle): 0.25
- Elimination kinetics Ke ([2]; Pancreas): 0.26
- Elimination kinetics t1/2 ([2]; Pancreas): 63.6 h
- Elimination kinetics Ke ([2]; Skin): 0.19
- Elimination kinetics t1/2 ([2]; Skin): 86.2 h
- Elimination kinetics Ke ([2]; Small Intestine): 0.36
- Elimination kinetics t1/2 ([2]; Small Intestine): 46.3 h
- Elimination kinetics Ke ([2]; Spleen): 0.24
- Elimination kinetics t1/2 ([2]; Spleen): 69.4 h
- Elimination kinetics Ke ([2]; Stomach): 0.27
- Elimination kinetics t1/2 ([2]; Stomach): 62.6 h
- Elimination kinetics Ke ([2]; Thymus): 0.35
- Elimination kinetics t1/2 ([2]; Thymus): 48.2 h
